Results taken from patent publication US8658604B2, “Template-fixed beta-hairpin peptidomimetics with protease inhibitory activity” (Polyphor Ltd, priority 2005, dated 2014).
Where two headings read alike, the source gives them in different places. Where a SMILES comes first, the peptide text is derived from it.

Legend:
[1] = biological target: Urokinase from human urine (Homo sapiens, UniProt P00749); experiment: Enzymatic assay, urokinase
[2] = biological target: T1, Elastase from human neutrophils (Homo sapiens, UniProt P08246); experiment: Enzymatic assay, elastase; settings: for IC50: Elastase IC50
T1 sequence (P08246 30-267): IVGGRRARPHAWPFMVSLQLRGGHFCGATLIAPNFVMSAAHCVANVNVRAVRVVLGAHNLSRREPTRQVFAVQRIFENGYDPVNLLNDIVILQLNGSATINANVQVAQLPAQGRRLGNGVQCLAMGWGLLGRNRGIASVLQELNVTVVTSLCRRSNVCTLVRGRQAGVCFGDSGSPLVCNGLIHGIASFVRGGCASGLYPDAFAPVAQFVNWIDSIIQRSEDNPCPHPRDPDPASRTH

[3] = biological target: Thrombin, from Human Plasma (Homo sapiens, UniProt P00734); experiment: Enzymatic assay, thrombin
[4] = biological target: Coagulation Factor Xa, from uman plasma (Homo sapiens, UniProt P00742); experiment: Enzymatic assay, coagulation factor Xa
[5] = biological target: T2, Chymase, from human skin (Homo sapiens, UniProt P23946); experiment: Enzymatic assay, chymase
T2 sequence (P23946 22-247): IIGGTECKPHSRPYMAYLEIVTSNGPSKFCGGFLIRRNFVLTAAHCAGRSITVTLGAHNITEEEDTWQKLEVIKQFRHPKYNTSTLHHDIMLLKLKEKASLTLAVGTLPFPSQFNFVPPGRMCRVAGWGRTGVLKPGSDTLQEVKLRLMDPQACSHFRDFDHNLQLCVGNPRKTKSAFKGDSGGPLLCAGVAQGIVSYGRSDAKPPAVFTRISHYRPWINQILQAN

[6] = test system: Tryptase, from human lung; experiment: Enzymatic assay, tryptase; settings: at 100 μM
[7] = biological target: T3, CathepsinG, from human neutrophils (Homo sapiens, UniProt P08311); experiment: Enzymatic assay, cathepsin G; settings: Cathepsin G IC50
T3 sequence (P08311 21-244): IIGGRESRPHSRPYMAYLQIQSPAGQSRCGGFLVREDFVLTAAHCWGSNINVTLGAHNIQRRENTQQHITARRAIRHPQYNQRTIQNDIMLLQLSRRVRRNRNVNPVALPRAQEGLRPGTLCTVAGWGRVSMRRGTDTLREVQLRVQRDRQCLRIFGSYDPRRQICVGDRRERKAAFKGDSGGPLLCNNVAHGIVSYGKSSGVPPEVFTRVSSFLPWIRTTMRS

[8] = biological target: Trypsin, from human pancreas (Homo sapiens, UniProt P07477); experiment: Enzymatic assay, trypsin; settings: at 100 μM
[9] = test system: human red blood cells (hRBC); experiment: Hemolysis
[10] = biological target: Chymotrypsin, from human pancreas (Homo sapiens, UniProt P17538); experiment: Enzymatic assay, chymotrypsin; settings: at 100 μM
[11] = test system: HELA cells (Acc57); experiment: Cytotoxicity assay (MTT reduction), HELA cells; type: cell-based
In short: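 HeLa cells were grown for 24 h, then exposed to peptides at 12.5, 25 and 50 μM in triplicate for 48 h at 37 °C. MTT reduction was read at 595 nm and growth % calculated relative to time-zero wells. LC50 interpolated by linear trend at −50% growth, GI50 at 50%.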

Chymotrypsin, from human pancreas, sequence (P17538 19-263): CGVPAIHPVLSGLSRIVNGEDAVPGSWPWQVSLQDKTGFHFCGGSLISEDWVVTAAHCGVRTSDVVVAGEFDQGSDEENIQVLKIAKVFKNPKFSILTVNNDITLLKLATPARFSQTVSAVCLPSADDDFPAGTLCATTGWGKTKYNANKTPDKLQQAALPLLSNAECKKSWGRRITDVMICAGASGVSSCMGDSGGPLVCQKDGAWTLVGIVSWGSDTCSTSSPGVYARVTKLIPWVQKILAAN
Coagulation Factor Xa, from uman plasma, sequence (P00742 235-488 limits assumed): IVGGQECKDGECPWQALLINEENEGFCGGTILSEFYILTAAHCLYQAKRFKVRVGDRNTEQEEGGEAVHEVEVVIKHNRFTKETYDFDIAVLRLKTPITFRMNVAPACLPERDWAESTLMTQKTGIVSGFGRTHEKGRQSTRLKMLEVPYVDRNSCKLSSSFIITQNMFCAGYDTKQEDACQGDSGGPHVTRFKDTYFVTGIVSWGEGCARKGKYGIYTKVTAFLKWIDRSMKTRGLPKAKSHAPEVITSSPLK
Coagulation Factor Xa, from uman plasma, sequence (P00742 41-179 limits assumed): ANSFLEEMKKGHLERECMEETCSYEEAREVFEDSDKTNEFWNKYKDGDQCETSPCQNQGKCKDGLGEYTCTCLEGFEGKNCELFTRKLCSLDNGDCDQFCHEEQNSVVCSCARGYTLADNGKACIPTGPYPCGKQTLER

## CC[C@H](C)[C@@H]1NC(=O)[C@@H]2CCCN2C(=O)[C@@H]2CCCN2C(=O)[C@H](CC(=O)O)NC(=O)[C@H](CO)NC(=O)[C@H](CCCCN)NC(=O)[C@H]([C@@H](C)O)NC(=O)[C@@H]2CSSC[C@H](NC1=O)C(=O)N[C@@H](CO)C(=O)N1CCC[C@@H]1C(=O)N1CCC[C@H]1C(=O)N[C@@H](Cc1ccccc1)C(=O)N2 [Ex. 4] (HELM PEPTIDE1{F.C.T.K.S.D.P.P.I.C.S.[dP].P}$PEPTIDE1,PEPTIDE1,2:R3-10:R3|PEPTIDE1,PEPTIDE1,1:R1-13:R2$$$V2.0)
[1]
  Urokinase at 100 μM %: 5.4%
[2]
  IC50: > 100 µM
[3]
  Thrombin at 100 μM %: 0%
[4]
  FXa at 100 μM %: 2.4%
[5]
  Chymase at 100 μM %: 0%
[6]
  Tryptase at 100 μM %: 0%
[7]
  IC50: 0.091 µM
[8]
  Trypsin at 100 μM %: 96%
[9]
  Hemolysis at 100 μM %: 0%
[10]
  Chymotrypsin at 100 μM %: 1.8%
[11]; Hela cells
  Cytotoxicity LC50/GI50 Hela cells: 100 µM

## CC[C@H](C)[C@@H]1NC(=O)[C@@H]2CCCN2C(=O)[C@@H]2CCCN2C(=O)[C@H](CC(=O)O)NC(=O)[C@H](CO)NC(=O)[C@H](CCCCN)NC(=O)[C@H]([C@@H](C)O)NC(=O)[C@H](CCC(=O)O)NC(=O)[C@H](CCCNC(=N)N)NC(=O)[C@@H]2CCCN2C(=O)[C@H]2CCCN2C(=O)[C@H](Cc2ccccc2)NC(=O)[C@H](CCCNC(=N)N)NC1=O [Ex. 7] (HELM PEPTIDE1{R.E.T.K.S.D.P.P.I.R.F.[dP].P}$PEPTIDE1,PEPTIDE1,1:R1-13:R2$$$V2.0)
[1]
  Urokinase at 100 μM %: 1.1%
[2]; at 100 μM (stated in cell instead of IC50)
  Elastase at 100 μM %: 1.5 at %
[3]
  Thrombin at 100 μM %: 0%
[4]
  FXa at 100 μM %: 11.7%
[5]
  Chymase at 100 μM %: 13.4%
[6]
  Tryptase at 100 μM %: 1.5%
[7]
  IC50: 0.091 µM
[8]
  Trypsin at 100 μM %: 41%
[9]
  Hemolysis at 100 μM %: 0.2%
[10]
  Chymotrypsin at 100 μM %: 12%
[11]
  Cytotoxicity LC50/GI50 Hela cells: 100 µM

## CC[C@H](C)[C@@H]1NC(=O)[C@H](C)NC(=O)[C@@H]2CCCN2C(=O)[C@H](CC(=O)O)NC(=O)[C@H](CO)NC(=O)[C@H](CCCCN)NC(=O)[C@H]([C@@H](C)O)NC(=O)[C@@H]2CSSC[C@H](NC1=O)C(=O)N[C@@H](CCCNC(=N)N)C(=O)N1CCC[C@@H]1C(=O)N1CCC[C@H]1C(=O)N[C@@H]([C@@H](C)CC)C(=O)N2 [Ex. 14] (HELM PEPTIDE1{I.C.T.K.S.D.P.A.I.C.R.[dP].P}$PEPTIDE1,PEPTIDE1,2:R3-10:R3|PEPTIDE1,PEPTIDE1,1:R1-13:R2$$$V2.0)
[1]
  Urokinase at 100 μM %: 5.4%
[2]
  IC50: > 100 µM
[3]
  Thrombin at 100 μM %: 8.7%
[4]
  FXa at 100 μM %: 6%
[5]
  Chymase at 100 μM %: 42.3%
[6]
  Tryptase at 100 μM %: 84.2%
[7]
  IC50: 0.052 µM
[8]
  Trypsin at 100 μM %: 88%
[9]
  Hemolysis at 100 μM %: 0%
[10]
  Chymotrypsin at 100 μM %: 0%
[11]; Hela cells
  Cytotoxicity LC50/GI50 Hela cells: 100 µM

## CCCC[C@@H]1NC(=O)[C@@H]2CCCN2C(=O)[C@@H]2CCCN2C(=O)[C@H](CC(=O)O)NC(=O)[C@H](CO)NC(=O)[C@H](CCCCN)NC(=O)[C@H]([C@@H](C)O)NC(=O)[C@@H]2CSSC[C@H](NC1=O)C(=O)N[C@@H](CCCNC(=N)N)C(=O)N1CCC[C@@H]1C(=O)N1CCC[C@H]1C(=O)N[C@@H]([C@@H](C)CC)C(=O)N2 [Ex. 19] (HELM PEPTIDE1{I.C.T.K.S.D.P.P.[Nle].C.R.[dP].P}$PEPTIDE1,PEPTIDE1,2:R3-10:R3|PEPTIDE1,PEPTIDE1,1:R1-13:R2$$$V2.0)
[1]
  Urokinase at 100 μM %: 4%
[2]
  IC50: > 100 µM
[3]
  Thrombin at 100 μM %: 11%
[4]
  FXa at 100 μM %: 32%
[5]
  Chymase at 100 μM %: 26.9%
[6]
  Tryptase at 100 μM %: 85.2%
[7]
  IC50: 0.041 µM
[8]
  Trypsin at 100 μM %: 94.0%
[9]
  Hemolysis at 100 μM %: 0%
[10]
  Chymotrypsin at 100 μM %: 0%
[11]; Hela cells
  Cytotoxicity LC50/GI50 Hela cells: 100 µM

## CC[C@H](C)[C@@H]1NC(=O)[C@@H]2CCCN2C(=O)[C@@H]2CCCN2C(=O)[C@H](CC(=O)O)NC(=O)[C@H](CO)NC(=O)[C@H](CCCCN)NC(=O)[C@H]([C@@H](C)O)NC(=O)[C@@H]2CSSC[C@H](NC1=O)C(=O)N[C@@H]([C@@H](C)O)C(=O)N1CCC[C@@H]1C(=O)N1CCC[C@H]1C(=O)N[C@@H](C1CCCCC1)C(=O)N2 [Ex. 38] (HELM PEPTIDE1{[O=C([C@@H](N[*:1])C1CCCCC1)[*:2]].C.T.K.S.D.P.P.I.C.T.[dP].P}$PEPTIDE1,PEPTIDE1,2:R3-10:R3|PEPTIDE1,PEPTIDE1,1:R1-13:R2$$$V2.0)
[1]
  Urokinase at 100 μM %: 1%
[2]
  IC50: > 100 µM
[3]
  Thrombin at 100 μM %: 0%
[4]
  FXa at 100 μM %: 0%
[5]
  Chymase at 100 μM %: 1%
[6]
  Tryptase at 100 μM %: 11%
[7]
  IC50: 0.031 µM
[8]
  Trypsin at 100 μM %: 96%
[9]
  Hemolysis at 100 μM %: 0%
[10]
  Chymotrypsin at 100 μM %: 4%
[11]; Hela cells
  Cytotoxicity LC50/GI50 Hela cells: 100 µM

## CC[C@H](C)[C@@H]1NC(=O)[C@@H]2CCCN2C(=O)[C@@H]2CCCN2C(=O)[C@H](CC(=O)O)NC(=O)[C@H](CO)NC(=O)[C@H](CCCCN)NC(=O)[C@H]([C@@H](C)O)NC(=O)[C@@H]2CSSC[C@H](NC1=O)C(=O)N[C@@H](CC(=O)O)C(=O)N1CCC[C@@H]1C(=O)N1CCC[C@H]1C(=O)N[C@@H](C1CCCCC1)C(=O)N2 [Ex. 39] (HELM PEPTIDE1{[O=C([C@@H](N[*:1])C1CCCCC1)[*:2]].C.T.K.S.D.P.P.I.C.D.[dP].P}$PEPTIDE1,PEPTIDE1,2:R3-10:R3|PEPTIDE1,PEPTIDE1,1:R1-13:R2$$$V2.0)
[1]
  Urokinase at 100 μM %: 2%
[2]
  IC50: > 100 µM
[3]
  Thrombin at 100 μM %: 2%
[4]
  FXa at 100 μM %: 0%
[5]
  Chymase at 100 μM %: 0%
[6]
  Tryptase at 100 μM %: 34%
[7]
  IC50: 0.038 µM
[8]
  Trypsin at 100 μM %: 94%
[9]
  Hemolysis at 100 μM %: 0%
[10]
  Chymotrypsin at 100 μM %: 7%
[11]; Hela cells
  Cytotoxicity LC50/GI50 Hela cells: 98 µM

## CC[C@H](C)[C@@H]1NC(=O)[C@@H]2CCCN2C(=O)[C@@H]2CCCN2C(=O)[C@H](CC(=O)O)NC(=O)[C@H](CO)NC(=O)[C@H](CCCCN)NC(=O)[C@H]([C@@H](C)O)NC(=O)[C@@H]2CSSC[C@H](NC1=O)C(=O)N[C@@H](Cc1ccc(O)cc1)C(=O)N1CCC[C@@H]1C(=O)N1CCC[C@H]1C(=O)N[C@@H](C1CCCCC1)C(=O)N2 [Ex. 40] (HELM PEPTIDE1{[O=C([C@@H](N[*:1])C1CCCCC1)[*:2]].C.T.K.S.D.P.P.I.C.Y.[dP].P}$PEPTIDE1,PEPTIDE1,2:R3-10:R3|PEPTIDE1,PEPTIDE1,1:R1-13:R2$$$V2.0)
[1]
  Urokinase at 100 μM %: 10%
[2]
  IC50: > 44.9 µM
[3]
  Thrombin at 100 μM %: 1%
[4]
  FXa at 100 μM %: 3%
[5]
  Chymase at 100 μM %: 8%
[6]
  Tryptase at 100 μM %: 33%
[7]
  IC50: 0.025 µM
[8]
  Trypsin at 100 μM %: 94%
[9]
  Hemolysis at 100 μM %: 0.1%
[10]
  Chymotrypsin at 100 μM %: 19%
[11]; Hela cells
  Cytotoxicity LC50/GI50 Hela cells: 97 µM
